Toxic doses and inconclusive results are not listed. How the source made its calls: active means survival T/C of 150% or more; inactive means T/C below 125% in these data.
Tested on: P388 leukemia ip, CD2F1 mice, survival T/C
Assay: NCI In Vivo Anticancer Drug Screen. Data for tumor model P388 Leukemia (intraperitoneal) in CD2F1 (CDF1) mice
Conditions: endpoint: median survival time, higher = longer survival
In short: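 Mice carrying the transplanted tumor received test compound or vehicle. Survival was recorded in each group, and the value is the treated-group measurement divided by that of the vehicle-treated control group.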

[1] = dose: 60.0 mg/kg/injection, schedule: Q01DX005 (ip), vehicle: saline with Tween-80
[2] = dose: 50.0 mg/kg/injection, schedule: Q01DX005 (ip), vehicle: saline with Tween-80
[3] = dose: 100.0 mg/kg/injection, schedule: Q01DX005 (ip), vehicle: saline with Tween-80
[4] = dose: 100.0 mg/kg/injection, schedule: Q04DX003 (ip), vehicle: saline with Tween-80
[5] = dose: 200.0 mg/kg/injection, schedule: Q01DX005 (ip), vehicle: saline with Tween-80
[6] = dose: 200.0 mg/kg/injection, schedule: Q04DX003 (ip), vehicle: saline with Tween-80
[7] = dose: 100.0 mg/kg/injection, schedule: Q01DX009 (ip), vehicle: saline with Tween-80
[8] = dose: 200.0 mg/kg/injection, schedule: Q01DX009 (ip), vehicle: saline with Tween-80
[9] = dose: 25.0 mg/kg/injection, schedule: Q04DX003 (ip), vehicle: saline with Tween-80
[10] = dose: 50.0 mg/kg/injection, schedule: Q04DX003 (ip), vehicle: saline with Tween-80
[11] = dose: 200.0 mg/kg/injection, schedule: Q01DX001 (ip), vehicle: Klucel (hydroxypropylcellulose) (HPC)
[12] = dose: 50.0 mg/kg/injection, schedule: Q01DX005 (ip), vehicle: Klucel (hydroxypropylcellulose) (HPC)
[13] = dose: 100.0 mg/kg/injection, schedule: Q01DX005 (ip), vehicle: Klucel (hydroxypropylcellulose) (HPC)
[14] = dose: 50.0 mg/kg/injection, schedule: Q01DX009 (ip), vehicle: saline
[15] = dose: 100.0 mg/kg/injection, schedule: Q01DX009 (ip), vehicle: saline
[16] = dose: 100.0 mg/kg/injection, schedule: Q04DX002 (ip), vehicle: saline with Tween-80
[17] = dose: 200.0 mg/kg/injection, schedule: Q04DX002 (ip), vehicle: saline with Tween-80
[18] = dose: 400.0 mg/kg/injection, schedule: Q04DX002 (ip), vehicle: saline with Tween-80
[19] = dose: 200.0 mg/kg/injection, schedule: Q01DX009 (ip), vehicle: saline

Measured: T/C

C/C([O-])=N/c1n[n+](-c2ccc(Cl)cc2)no1
inactive: dose: 3.12 mg/kg/injection, schedule: Q01DX009 (ip), vehicle: other 98 % of control | dose: 6.25 mg/kg/injection, schedule: Q01DX009 (ip), vehicle: other 100 % of control | dose: 12.5 mg/kg/injection, schedule: Q01DX009 (ip), vehicle: other 103 % of control | dose: 25.0 mg/kg/injection, schedule: Q01DX009 (ip), vehicle: other 101 % of control | dose: 50.0 mg/kg/injection, schedule: Q01DX009 (ip), vehicle: other 112 % of control | dose: 100.0 mg/kg/injection, schedule: Q01DX009 (ip), vehicle: other 112 % of control

O=C(O)CC(CC(=O)O)CN(CC(=O)O)Cc1ccccc1
inactive: dose: 20.0 mg/kg/injection, schedule: Q01DX005 (ip), vehicle: Klucel (hydroxypropylcellulose) (HPC) 102 % of control | dose: 40.0 mg/kg/injection, schedule: Q01DX005 (ip), vehicle: Klucel (hydroxypropylcellulose) (HPC) 90 % of control | dose: 80.0 mg/kg/injection, schedule: Q01DX005 (ip), vehicle: Klucel (hydroxypropylcellulose) (HPC) 91 % of control

CCCC(=O)O.CCCC(=O)O.CCCC(=O)O.CCCC(=O)O.O=P1(N(CCCl)CCCl)NCCCO1.O=P1(N(CCCl)CCCl)NCCCO1.[Rh].[Rh] (configuration not stated)
inactive: dose: 0.13 mg/kg/injection, schedule: Q01DX009 (ip), vehicle: olive oil, sesame oil, peanut oil 103 % of control | dose: 0.25 mg/kg/injection, schedule: Q01DX009 (ip), vehicle: olive oil, sesame oil, peanut oil 112 % of control | dose: 0.5 mg/kg/injection, schedule: Q01DX009 (ip), vehicle: olive oil, sesame oil, peanut oil 101 % of control | dose: 1.0 mg/kg/injection, schedule: Q01DX009 (ip), vehicle: olive oil, sesame oil, peanut oil 117 % of control

COc1cc(Br)c(-c2coc3c(OC)c(OC)ccc3c2=O)cc1OC
inactive: dose: 15.0 mg/kg/injection, schedule: Q01DX005 (ip), vehicle: saline with Tween-80 89 % of control | dose: 30.0 mg/kg/injection, schedule: Q01DX005 (ip), vehicle: saline with Tween-80 88 % of control | [1] 86 % of control

OC(CCl)Cn1nnc2ccccc21 (configuration not stated)
inactive: [2] 103 % of control | [3] 100 % of control | [4] 93 % of control | [5] 94 % of control | [6] 98 % of control | dose: 400.0 mg/kg/injection, schedule: Q04DX003 (ip), vehicle: saline with Tween-80 99 % of control

CC(C)COC(=O)NCCCl
inactive: dose: 50.0 mg/kg/injection, schedule: Q01DX009 (ip), vehicle: saline with Tween-80 100 % of control | [7] 97 % of control | [8] 97 % of control

O=C(Nc1ccc(Cl)cc1C(=O)c1ccccn1)c1ccccc1
inactive: dose: 12.5 mg/kg/injection, schedule: Q04DX003 (ip), vehicle: saline with Tween-80 107 % of control | [9] 93 % of control | [10] 108 % of control | [4] 94 % of control | [6] 97 % of control

C[C@@H]1CC2=CC(=O)CC[C@]2(C)[C@H]2CC[C@]3(C)[C@@H](O)CC[C@H]3[C@H]12
inactive: [7] 90 % of control | [8] 90 % of control

c1ccc(-c2ccc(-c3cn4c(n3)SCC4)cc2)cc1
inactive: [11] 91 % of control

O=c1[nH]c2c([N+](=O)[O-])cc(Cl)cc2nc1/C=C(\O)c1cccc2ccccc12
inactive: dose: 60.0 mg/kg/injection, schedule: Q01DX005 (ip), vehicle: Klucel (hydroxypropylcellulose) (HPC) 101 % of control | dose: 120.0 mg/kg/injection, schedule: Q01DX005 (ip), vehicle: Klucel (hydroxypropylcellulose) (HPC) 102 % of control | dose: 240.0 mg/kg/injection, schedule: Q01DX005 (ip), vehicle: Klucel (hydroxypropylcellulose) (HPC) 105 % of control

CCC(=O)Nc1cc(C(F)(F)F)cc2[nH]c(C)nc12
inactive: [2] 97 % of control | [3] 99 % of control | [5] 100 % of control

CCn1c(-c2ccccc2)nc(=S)c(C(=O)c2ccccc2)c1SC
inactive: dose: 100.0 mg/kg/injection, schedule: Q04DX003 (ip), vehicle: Klucel (hydroxypropylcellulose) (HPC) 98 % of control | dose: 200.0 mg/kg/injection, schedule: Q04DX003 (ip), vehicle: Klucel (hydroxypropylcellulose) (HPC) 100 % of control | dose: 400.0 mg/kg/injection, schedule: Q04DX003 (ip), vehicle: Klucel (hydroxypropylcellulose) (HPC) 100 % of control

COc1cccc(C2OC3=C(Nc4ccc(Cl)cc4N3)C2=O)c1 (configuration not stated)
inactive: [12] 93 % of control | [13] 104 % of control | dose: 200.0 mg/kg/injection, schedule: Q01DX005 (ip), vehicle: Klucel (hydroxypropylcellulose) (HPC) 90 % of control

C/C=C1\C[C@H]2C(=O)Nc3cc(O)c(OC)cc3C(=O)N2C1
inactive: dose: 25.0 mg/kg/injection, schedule: Q01DX005 (ip), vehicle: saline with Tween-80 96 % of control | [2] 105 % of control | [3] 106 % of control

COc1cccc2c1C(=O)c1c(O)c3c(c(O)c1C2=O)C[C@@](O)(C(C)=O)C[C@@H]3OC1CC(NC=O)C(O)C(C)O1 (some centres not stated)
active: [14] 153 % of control | [15] 155 % of control
inactive: dose: 1.56 mg/kg/injection, schedule: Q01DX009 (ip), vehicle: saline 117 % of control | dose: 3.13 mg/kg/injection, schedule: Q01DX009 (ip), vehicle: saline 119 % of control

O=C(O)C(Cc1ccccc1)NC(c1ccc(Cl)cc1)P(=O)(O)O (configuration not stated)
inactive: [1] 98 % of control | dose: 120.0 mg/kg/injection, schedule: Q01DX005 (ip), vehicle: saline with Tween-80 105 % of control | dose: 240.0 mg/kg/injection, schedule: Q01DX005 (ip), vehicle: saline with Tween-80 97 % of control

Clc1ccc(C2=Nc3ccccc3SC(c3ccco3)C2)cc1Cl (configuration not stated)
inactive: [16] 100 % of control | [17] 96 % of control | [18] 102 % of control

Cn1c(=O)c2[nH]c(Cl)nc2n(C)c1=O
inactive: dose: 25.0 mg/kg/injection, schedule: Q01DX009 (ip), vehicle: saline 100 % of control | [14] 102 % of control | [15] 102 % of control | [19] 99 % of control

C=Cc1cc(OC)c2c(c1)c(=O)oc1c2cc(OC)c2c(O)ccc(C3OC(C)C(O)C(C)(O)C3O)c21 (configuration not stated)
active: dose: 12.5 mg/kg/injection, schedule: Q01DX005 (ip), vehicle: DMSO 150 % of control | dose: 25.0 mg/kg/injection, schedule: Q01DX005 (ip), vehicle: DMSO 150 % of control | dose: 50.0 mg/kg/injection, schedule: Q01DX005 (ip), vehicle: DMSO 169 % of control
inactive: dose: 1.56 mg/kg/injection, schedule: Q01DX005 (ip), vehicle: DMSO 115 % of control | dose: 3.12 mg/kg/injection, schedule: Q01DX005 (ip), vehicle: DMSO 118 % of control

O=C(O)c1cc2ccccc2o1
inactive: [9] 100 % of control | [10] 104 % of control | [7] 95 % of control | [4] 104 % of control | [8] 95 % of control

CN(C)c1c(-c2ccccc2)nnc(-c2ccccc2)c1-c1ccccc1
inactive: dose: 100.0 mg/kg/injection, schedule: Q01DX001 (ip), vehicle: Klucel (hydroxypropylcellulose) (HPC) 103 % of control | [11] 100 % of control | dose: 400.0 mg/kg/injection, schedule: Q01DX001 (ip), vehicle: Klucel (hydroxypropylcellulose) (HPC) 101 % of control

O=c1n(-c2ccccc2)c(=O)n2n1C1CC3c4ccccc4C1C32 (configuration not stated)
inactive: dose: 25.0 mg/kg/injection, schedule: Q01DX005 (ip), vehicle: Klucel (hydroxypropylcellulose) (HPC) 101 % of control | [12] 97 % of control | [13] 94 % of control

CCCOCC(=O)O
inactive: [14] 106 % of control | [15] 110 % of control | [19] 101 % of control

C=C1CC2(CCC3(C)C(CCC4C5CCC(=O)C5(C)CCC43)C2)OC1=O (configuration not stated)
inactive: [16] 95 % of control | [17] 93 % of control | [18] 96 % of control

COc1ccc2c(NCCCCCCCCNc3c4ccccc4nc4cc(OC)ccc34)c3ccccc3nc2c1
active: dose: 0.62 mg/kg/injection, schedule: Q01DX009 (ip), vehicle: other 176 % of control | dose: 3.75 mg/kg/injection, schedule: Q01DX009 (ip), vehicle: other 157 % of control
inactive: dose: 7.5 mg/kg/injection, schedule: Q01DX009 (ip), vehicle: other 100 % of control

Reference: PubChem BioAssay AID330 (DTP/NCI, 2004)
